Experimental data taken from patent publication US7348351B2, “Substituted 3-alkyl and 3-arylalkyl 1H-indol-1yl acetic acid derivatives as inhibitors of plasminogen activator inhibitor-1 (PAI-1)” (Wyeth, priority 2002, dated 2008).

Assays:
[1] = molecular target: T1, recombinant human plasminogen activator inhibitor-1 (Homo sapiens, UniProt P05121); assay: Primary Screen for the PAI-1 Inhibition (residual tPA activity, chromogenic Spectrozyme-tPA); type: biochemical; conditions: 25 μM test compound; 140 nM PAI-1, 70 nM tPA, pH 6.6
T1 construct: purchased Molecular Innovations, Royal Oak, Mich
T1 sequence (P05121 24-402): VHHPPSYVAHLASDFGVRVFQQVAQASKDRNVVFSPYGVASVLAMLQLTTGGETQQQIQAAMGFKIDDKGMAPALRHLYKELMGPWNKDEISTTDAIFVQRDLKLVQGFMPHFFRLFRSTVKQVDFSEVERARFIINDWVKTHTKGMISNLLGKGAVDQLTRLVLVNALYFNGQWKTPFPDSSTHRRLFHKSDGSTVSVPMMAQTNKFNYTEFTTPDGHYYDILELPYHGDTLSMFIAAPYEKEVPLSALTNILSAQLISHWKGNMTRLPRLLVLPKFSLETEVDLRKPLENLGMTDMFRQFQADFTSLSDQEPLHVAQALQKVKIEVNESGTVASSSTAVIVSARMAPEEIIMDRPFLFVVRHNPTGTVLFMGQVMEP
Procedure: Primary Screen for the PAI-1 Inhibition
Test compounds were dissolved in DMSO at a final concentration of 10 mM, then diluted 100× in physiologic buffer. The inhibitory assay was initiated by the addition of the test compound (1-100 μM final concentration, maximum DMSO concentration of 0.2%) in a pH 6.6 buffer containing 140 nM recombinant human plasminogen activator inhibitor-1 (Molecular Innovations, Royal Oak, Mich.). Following a 1 hour incubation at room temperature, 70 nM of recombinant human tissue plasminogen activator (tPA) was added, and the combination of the test compound, PAI-1 and tPA was incubated for an additional 30 minutes. Following the second incubation, Spectrozyme-tPA (American Diagnostica, Greenwich, Conn.), a chromogenic substrate for tPA, was added and absorbance read at 405 nm at 0 and 60 minutes. Relative PAI-1 inhibition is equal to the residual tPA activity in the presence of test compound and PAI-1. Control treatments included the complete inhibition of tPA by PAI-1 at the molar ratio employed (2:1), and the absence of any effect of the test compound on tPA alone.

human PAI-1 = human PAI-1 (Homo sapiens, UniProt P05121); assay: Assay for Determining IC50 of Inhibition of PAI-1 (antibody detection of active PAI-1 bound to tPA-coated plate); type: biochemical; conditions: human PAI-1 50 ng/ml, pH 7.5, 33B8 monoclonal antibody detection
human PAI-1, sequence (P05121 24-402): as above
Procedure: Assay for Determining IC50 of Inhibition of PAI-1
This assay was based upon the non-SDS dissociable interaction between tPA and active PAI-1. Assay plates were initially coated with human tPA (10 μg/ml). The test compounds were dissolved in DMSO at 10 mM, then diluted with physiologic buffer (pH 7.5) to a final concentration of 1-50 μM. The test compounds were incubated with human PAI-1 (50 ng/ml) for 15 minutes at room temperature. The tPA-coated plate was washed with a solution of 0.05% Tween 20 and 0.1% BSA, then the plate was blocked with a solution of 3% BSA. An aliquot of the test compound/PAI-1 solution was then added to the tPA-coated plate, incubated at room temperature for 1 hour, and washed. Active PAI-1 bound to the plate was assessed by adding an aliquot of a 1:1000 dilution of the 33B8 monoclonal antibody against human PAI-1, and incubating the plate at room temperature for 1 hour (Molecular Innovations, Royal Oak, Mich.). […] The plate was incubated 45 minutes at room temperature, and color development was determined at OD405 nm. The quantitation of active PAI-1 bound to tPA at varying concentrations of the test compound was used to determine the IC50. Results are analyzed using a logarithmic best-fit equation. The assay sensitivity was 5 ng/ml of human PAI-1 as determined from a standard curve ranging from 0-100 ng/ml.

Structure (SMILES) | % Inhibition @ 25 μM [1] [%] | melting point [°C] | inhibition at 25 µM [1] [%] | IC50 (human PAI-1) [µM]
O=C(O)Cn1cc(Cc2cc(C(F)(F)F)cc(C(F)(F)F)c2)c2cc(-c3ccc(Cl)cc3Cl)ccc21 [Example 3, [3-[3,5-bis(trifluoromethyl)benzyl]-5-(2,4-dichlorophenyl)-1H-indol-1-yl]acetic acid] |  | 150 to 155 | 100 | 
O=C(O)Cn1cc(Cc2cc(C(F)(F)F)cc(C(F)(F)F)c2)c2cc(-c3ccc(OC(F)(F)F)cc3)ccc21 [Example 2] |  | 188 to 190 | 31 | 15.1
CC(c1ccccc1)c1cn(CC(=O)O)c2ccc(-c3cccc(C(F)(F)F)c3)cc12 (centres unmarked) [Example 6, [3-(1-Phenyl-ethyl)-5-(3-trifluoromethyl-phenyl)-indol-1-yl]acetic acid] |  |  | 49 | 
O=C(O)Cn1cc(Cc2cc(C(F)(F)F)cc(C(F)(F)F)c2)c2cc(-c3cccc(C(F)(F)F)c3)ccc21 [Example 4, {3-[3,5-bis(triflu romethyl)benzyl]-5-[3-(trifluoromethyl)phenyl]-1H-indol-1-yl}acetic acid] |  | 175 to 176 | 35 | 
CC(c1cccs1)c1cn(CC(=O)O)c2ccc(-c3cccc(C(F)(F)F)c3)cc12 (centres unmarked) [Example 7, [3-(1-Thiophen-2-yl-ethyl)-5-(3-trifluoromethyl-phenyl)-indol-1-yl]acetic acid] |  |  | 47 | 

The remaining lines, values ahead:

% Inhibition @ 25 μM [1] [%] | melting point [°C] | inhibition at 25 µM [1] [%] | IC50 (human PAI-1) [µM] | Structure (SMILES)
48 |  |  |  | CC(c1cn(CC(=O)O)c2ccc(-c3ccc(Cl)cc3Cl)cc12)C1CCCCC1 (centres unmarked) [Example 12, [3-(1-Cyclohelxy-ethyl)-5-(2,4-dichloro-phenyl)-indol-1-yl]-acetic acid]
 |  | 26 |  | CC(c1ccccc1)c1cn(CC(=O)O)c2ccc(-c3ccc(Cl)cc3Cl)cc12 (centres unmarked) [Example 11, [5-(2,4-Dichloro-phenyl)-3-(1-phenyl-ethyl)-indol-1-yl]-acetic acid]
 |  | 26 |  | CC(C)c1ccc(Cc2cn(CC(=O)O)c3ccc(-c4cccc(C(F)(F)F)c4)cc23)cc1 [Example 9, [3-(4-Isopropyl-benzyl)-5-(3-trifluoromethyl-phenyl)-indol-1-yl]acetic acid]
 |  | 48 |  | CC(C)CC(C)c1cn(CC(=O)O)c2ccc(-c3ccc(Cl)cc3Cl)cc12 (centres unmarked) [Example 10, [5-(2,4-Dichloro-phenyl)-3-(1,3-dimethyl-butyl)-indol-1-yl]-acetic acid]
 |  | 64 |  | CC(c1cn(CC(=O)O)c2ccc(-c3cccc(C(F)(F)F)c3)cc12)C1CCCCC1 (centres unmarked) [Example 8, [3-(1-Cyclohexyl-ethyl)-5-(3-trifluoromethyl-phenyl)-indol-1-yl]acetic acid]
